Converted amounts (≈) assume the structure as drawn.

Assay [1] deals with Mycobacterium tuberculosis. As to the kind of experiment: Antitubercular activity against Mycobacterium tuberculosis H37Rv after 10 to 14 days by broth microdilution assay. It is filed as functional. On the technique in general: Dilution methods test growth across graded concentrations, often in twofold steps.
For assay [2], the system named is Mycobacterium tuberculosis. As to the kind of experiment: Antitubercular activity against Mycobacterium tuberculosis H37Rv assessed as inhibition of cell wall biosynthesis after 10 to 14 days by bioluminescence assay relative to ethambutol. It counts as functional. On the set-up: scale not given: the % may be the effect or the level left.
The subject of the next assay is HepG2. As to the kind of experiment: Cytotoxicity against human HepG2 cells after 72 hrs by MTS assay. It is filed as cell-based. Conditions: HepG2, 72 h. Background: Tetrazolium dyes change colour on reduction, which living cells bring about.
Assay [3] is described as follows: Selectivity index, IC50 for human HepG2 cells to MIC for Mycobacterium tuberculosis H37Rv ATCC 25618. It counts as functional.
For assay [4], the system named is Mycobacterium tuberculosis. As to the kind of experiment: Antitubercular activity against Mycobacterium tuberculosis H37Rv after 10 to 14 days by BACTEC assay. It is filed as functional.

The term MIC denotes the smallest concentration in the dilution series that meets the test's criterion for growth inhibition. By IC50 is commonly meant the concentration needed to halve the response being measured. With `OC1CCN(CC2CCN(C3C4CC5CC(C4)CC3C5)CC2)CC1` (centres undefined), in assay [1], the MIC is 31.2 µM (≈ 10.4 µg/mL). The Activity in assay [2] came out at 102%. This compound gave an IC50 in the assay with HepG2 of 25 µM. Also, the “Selectivity Index” value in assay [3] is recorded as 0.8.
On to `OC1CCN(CC2CCN(CC34CC5CC(CC(C5)C3)C4)CC2)CC1`, for which the MIC in assay [1] worked out at 6.25 µM (≈ 2.17 µg/mL); in assay [4], 15.6 µM (≈ 5.41 µg/mL). Moreover, in assay [2], the Activity is 59%. In addition, it took 56 µM to reach half-maximal inhibition in the assay on HepG2 (IC50). Further, the “Selectivity Index” value in assay [3] was found to be 8.96.
As to `OC1CCN(CC2CCN(CC(c3ccccc3)c3ccccc3)CC2)CC1`, the MIC in assay [1] stood at 7.8 µM (≈ 2.95 µg/mL); in assay [4], 16 µM (≈ 6.06 µg/mL). Further, the Activity in assay [2] is on record as 125%. This compound gave a half-maximal inhibitory concentration (IC50) with HepG2 of 30 µM. For the same compound, the “Selectivity Index” value in assay [3] turned out to be 3.85.

(Values after ChEMBL document CHEMBL1153130, “Discovery of dipiperidines as new antitubercular agents” (Bioorg Med Chem Lett, 2010).)
